Assay results as given in patent publication EP0162592B1, “Heterocyclic amino compounds” (GLAXO GROUP LIMITED, priority 1984, dated 1985).
Counter-ions that a name gives are not always drawn.

Tested on: α1-adrenoreceptor
Test: a1-Adrenoreceptor antagonist action: prevention of phenylephrine contractions in rat isolated anococcygeus muscle (Schild analysis)
Assay type: cell-based
Conditions: agonist phenylephrine, KB = concentration shifting the agonist log10 (concentration)/response curve to the right by a factor of 2, read-out: KB value at a,-adrenoreceptors
Procedure: The a-adrenoreceptor-type selectivity of the compounds of general formula (I) is similarly assessed by measuring the ability to produce a parallel shift to the right of the logio (concentration)/response curve for the a,-adrenoreceptor agonist phenylephrine. The a,-adrenoreceptor-mediated responses of phenylephrine measured were contractions of the rat isolated anococcygeus muscle (Leighton, Butz & Parameter, Eur.J.Pharmac., 1979, 58 27-38).
Compounds were tested for their ability to prevent the action of α1-adrenoreceptor agonist phenylephrine in the rat isolated anococcygens muscle (Leighton, Butz & Parmeter, Eur. J. Pharmac., 1979 58 27-38). Antagonism of the effect of phenylephrine was quantified by measuring the parallel shift to the right of the phenylephrine log10 (concentration)/response curve in the presence of increasing concentrations of the test compound.
In (1) and (2) potency and competiveness of antagonism were determined by the method of Arunlakshana & Schild (Br. J. Pharmac. 1959, 14 48-58).

c1ccc2c(c1)C[C@H]1CNC[C@@H]1O2 (racemic) [Example 2, (±)-trans-1,2,3,3a,9,9a-Hexahydro[1]benzopyrano[2,3-c]pyrrole, hydrochloride]
Kb: > 10 µM
